Laboratory results from paper PMC10158552 (Biomedicine & Pharmacotherapy, 2023).

Tested on: SARS-CoV-2 Delta
Type: cell-based
Conditions: 346 µM compounds, 480 µg/ml antibodies

Row | Substance | viral replication of SARS-CoV-2, basal treatment
1 | Casirivimab: monoclonal Ab administered intravenously in patients, used as positive control (Roche) | show an antiviral effect
2 | Imdevimab: monoclonal Ab administered intravenously in patients, used as positive control (Roche) | show an antiviral effect
